Laboratory results: article PMC9202851, “Antitubercular activity assessment of fluorinated chalcones, 2-aminopyridine-3-carbonitrile and 2-amino-4H-pyran-3-carbonitrile derivatives: In vitro, molecular docking and in-silico drug likeliness studies” (PLoS ONE, 2022)
Converted amounts (≈) assume the structure as drawn.

system: Mycobacterium tuberculosis H37RV; assay: In vitro antitubercular activity by MABA (Alamar Blue); assay type: cell-based; settings: Mycobacterium tuberculosis H37RV, MABA, Middlebrook 7H9 broth, 37°C five days

SMILES | H37RV MIC
N#Cc1c(-c2c[nH]c3ccccc23)cc(-c2ccc(OC(F)(F)F)cc2)nc1N [Compound 40] | ~ 8 µM

same assay, conditions: Mycobacterium tuberculosis H37RV, MABA, Middlebrook 7H9 broth, 37°C five days; read-out: H37RV MIC

SMILES | MIC
O=C(O)c1cn(C2CC2)c2cc(N3CCNCC3)c(F)cc2c1=O [Ciprofloxacin, reference compound] | 9 µM (≈ 2.98 µg/mL)
N#Cc1c(-c2cccs2)cc(-c2ccc(C(F)(F)F)cc2)nc1N [Compound 26] | 33 µM (≈ 11.4 µg/mL)
N#Cc1c(-c2cccs2)cc(-c2ccc(C(F)(F)F)cc2)nc1N [Compound 27] | 18 µM (≈ 6.22 µg/mL)
N#Cc1c(-c2ccc[nH]2)cc(-c2ccc(C(F)(F)F)cc2)nc1N [Compound 30] | 17 µM (≈ 5.58 µg/mL)
N#Cc1c(-c2c[nH]c3ccccc23)cc(-c2ccc(OC(F)(F)F)cc2)nc1N [Compound 33] | 30 µM (≈ 11.8 µg/mL)
N#Cc1c(-c2cccs2)cc(-c2ccc(OC(F)(F)F)cc2)nc1N [Compound 36] | 31 µM (≈ 11.2 µg/mL)
N#Cc1c(-c2c[nH]c3ccccc23)cc(-c2ccc(OC(F)(F)F)cc2)nc1N [Compound 40] | 8 µM (≈ 3.15 µg/mL)
N#CC1=C(N)OC(c2ccc(C(F)(F)F)cc2)=CC1c1ccccc1Cl (centres unmarked) [Compound 41] | 17 µM (≈ 6.41 µg/mL)
N#CC1=C(N)OC(c2ccc(C(F)(F)F)cc2)=CC1c1ccc[nH]1 (centres unmarked) [Compound 50] | 16 µM (≈ 5.3 µg/mL)
N#CC1=C(N)OC(c2ccc(OC(F)(F)F)cc2)=CC1c1cccc(Cl)c1Cl (centres unmarked) [Compound 51] | 16 µM (≈ 6.84 µg/mL)
N#CC1=C(N)OC(c2ccc(OC(F)(F)F)cc2)=CC1c1ccc[nH]1 (centres unmarked) [Compound 60] | 16 µM (≈ 5.56 µg/mL)
NC(=O)c1cnccn1 [Pyrazinamide, reference compound] | 25 µM (≈ 3.08 µg/mL)
[H]/N=C(/N)N[C@H]1[C@H](O)[C@@H](O)[C@H](O[C@@H]2O[C@@H](C)[C@](O)(C=O)[C@H]2O[C@@H]2O[C@@H](CO)[C@H](O)[C@@H](O)[C@@H]2NC)[C@@H](N/C(N)=N\[H])[C@@H]1O [Streptomycin, reference compound] | 11 µM (≈ 6.4 µg/mL)

same assay, conditions: Mycobacterium tuberculosis, H37RV, 120 h, Mycobacterium tuberculosis H37RV, MABA, Middlebrook 7H9 broth, 37°C five days; read-out: H37RV MIC

SMILES | MIC
O=C(O)c1cn(C2CC2)c2cc(N3CCNCC3)c(F)cc2c1=O [Ciprofloxacin, reference compound] | ~9 µM (≈ 2.98 µg/mL)
O=C(/C=C/c1ccccc1Cl)c1ccc(C(F)(F)F)cc1 [Compound 1] | 40 µM (≈ 12.4 µg/mL)
O=C(/C=C/c1cccc(Cl)c1)c1ccc(C(F)(F)F)cc1 [Compound 2] | 161 µM (≈ 50 µg/mL)
O=C(/C=C/c1c[nH]c2ccccc12)c1ccc(C(F)(F)F)cc1 [Compound 3] | 145 µM (≈ 45.7 µg/mL)
O=C(/C=C/c1ccccc1[N+](=O)[O-])c1ccc(C(F)(F)F)cc1 [Compound 4] | 156 µM (≈ 50.1 µg/mL)
O=C(/C=C/c1cccc([N+](=O)[O-])c1)c1ccc(C(F)(F)F)cc1 [Compound 5] | 155 µM (≈ 49.8 µg/mL)
O=C(/C=C/c1cccs1)c1ccc(C(F)(F)F)cc1 [Compound 6] | 156 µM (≈ 44 µg/mL)
O=C(/C=C/c1ccc(Cl)cc1)c1ccc(C(F)(F)F)cc1 [Compound 8] | 188 µM (≈ 58.4 µg/mL)
O=C(/C=C/c1ccc([N+](=O)[O-])cc1)c1ccc(C(F)(F)F)cc1 [Compound 9] | 189 µM (≈ 60.7 µg/mL)
O=C(/C=C/c1ccc[nH]1)c1ccc(C(F)(F)F)cc1 [Compound 10] | 40 µM (≈ 10.6 µg/mL)
O=C(/C=C/c1cccc(Cl)c1Cl)c1ccc(OC(F)(F)F)cc1 [Compound 11] | 153 µM (≈ 55.3 µg/mL)
O=C(/C=C/c1cccc(Cl)c1)c1ccc(OC(F)(F)F)cc1 [Compound 12] | 153 µM (≈ 50 µg/mL)
O=C(/C=C/c1c[nH]c2ccccc12)c1ccc(OC(F)(F)F)cc1 [Compound 13] | 138 µM (≈ 45.7 µg/mL)
O=C(/C=C/c1ccccc1[N+](=O)[O-])c1ccc(OC(F)(F)F)cc1 [Compound 14] | 148 µM (≈ 49.9 µg/mL)
O=C(/C=C/c1cccc([N+](=O)[O-])c1)c1ccc(OC(F)(F)F)cc1 [Compound 15] | 148 µM (≈ 49.9 µg/mL)
O=C(/C=C/c1cccs1)c1ccc(OC(F)(F)F)cc1 [Compound 16] | 148 µM (≈ 44.1 µg/mL)
O=C(/C=C/c1ccco1)c1ccc(OC(F)(F)F)cc1 [Compound 17] | 168 µM (≈ 47.4 µg/mL)
O=C(/C=C/c1ccc(Cl)cc1)c1ccc(OC(F)(F)F)cc1 [Compound 18] | 177 µM (≈ 57.8 µg/mL)
O=C(/C=C/c1ccc([N+](=O)[O-])cc1)c1ccc(OC(F)(F)F)cc1 [Compound 19] | 178 µM (≈ 60 µg/mL)

SMILES | MIC
O=C(/C=C/c1ccc[nH]1)c1ccc(OC(F)(F)F)cc1 [Compound 20] | 38 µM (≈ 10.7 µg/mL)
N#Cc1c(-c2cccc(Cl)c2Cl)cc(-c2ccc(C(F)(F)F)cc2)nc1N [Compound 21] | 33 µM (≈ 13.5 µg/mL)
N#Cc1c(-c2cccc(Cl)c2)cc(-c2ccc(C(F)(F)F)cc2)nc1N [Compound 22] | 134 µM (≈ 50.1 µg/mL)
N#Cc1c(-c2c[nH]c3ccccc23)cc(-c2ccc(C(F)(F)F)cc2)nc1N [Compound 23] | 31 µM (≈ 11.7 µg/mL)
N#Cc1c(-c2ccccc2[N+](=O)[O-])cc(-c2ccc(C(F)(F)F)cc2)nc1N [Compound 24] | 33 µM (≈ 12.7 µg/mL)
N#Cc1c(-c2cccc([N+](=O)[O-])c2)cc(-c2ccc(C(F)(F)F)cc2)nc1N [Compound 25] | 130 µM (≈ 50 µg/mL)
N#Cc1c(-c2ccc(Cl)cc2)cc(-c2ccc(C(F)(F)F)cc2)nc1N [Compound 28] | 38 µM (≈ 14.2 µg/mL)
N#Cc1c(-c2ccc([N+](=O)[O-])cc2)cc(-c2ccc(C(F)(F)F)cc2)nc1N [Compound 29] | 152 µM (≈ 58.4 µg/mL)
N#Cc1c(-c2ccc[nH]2)cc(-c2ccc(C(F)(F)F)cc2)nc1N [Compound 30] | 16 to 18 µM (≈ 5.25 to 5.91 µg/mL)
N#Cc1c(-c2cccc(Cl)c2Cl)cc(-c2ccc(OC(F)(F)F)cc2)nc1N [Compound 31] | 32 µM (≈ 13.6 µg/mL)
N#Cc1c(-c2cccc(Cl)c2)cc(-c2ccc(OC(F)(F)F)cc2)nc1N [Compound 32] | 128 µM (≈ 49.9 µg/mL)
N#Cc1c(-c2ccccc2[N+](=O)[O-])cc(-c2ccc(OC(F)(F)F)cc2)nc1N [Compound 34] | 31 µM (≈ 12.4 µg/mL)
N#Cc1c(-c2cccc([N+](=O)[O-])c2)cc(-c2ccc(OC(F)(F)F)cc2)nc1N [Compound 35] | 125 µM (≈ 50 µg/mL)
N#Cc1c(-c2cccs2)cc(-c2ccc(OC(F)(F)F)cc2)nc1N [Compound 37] | 17 µM (≈ 6.14 µg/mL)
N#Cc1c(-c2ccc(Cl)cc2)cc(-c2ccc(OC(F)(F)F)cc2)nc1N [Compound 38] | 36 µM (≈ 14 µg/mL)
N#Cc1c(-c2ccc([N+](=O)[O-])cc2)cc(-c2ccc(OC(F)(F)F)cc2)nc1N [Compound 39] | 145 µM (≈ 58 µg/mL)
N#CC1=C(N)OC(c2ccc(C(F)(F)F)cc2)=CC1c1ccccc1Cl (centres unmarked) [Compound 41] | 16 to 18 µM (≈ 6.03 to 6.78 µg/mL)
N#CC1=C(N)OC(c2ccc(C(F)(F)F)cc2)=CC1c1cccc(Cl)c1 (centres unmarked) [Compound 42] | 133 µM (≈ 50.1 µg/mL)
N#CC1=C(N)OC(c2ccc(C(F)(F)F)cc2)=CC1c1c[nH]c2ccccc12 (centres unmarked) [Compound 43] | 30 µM (≈ 11.4 µg/mL)

SMILES | MIC
N#CC1=C(N)OC(c2ccc(C(F)(F)F)cc2)=CC1c1ccccc1[N+](=O)[O-] (centres unmarked) [Compound 44] | 32 µM (≈ 12.4 µg/mL)
N#CC1=C(N)OC(c2ccc(C(F)(F)F)cc2)=CC1c1cccc([N+](=O)[O-])c1 (centres unmarked) [Compound 45] | 129 µM (≈ 50 µg/mL)
N#CC1=C(N)OC(c2ccc(C(F)(F)F)cc2)=CC1c1cccs1 (centres unmarked) [Compound 46] | 32 µM (≈ 11.1 µg/mL)
N#CC1=C(N)OC(c2ccc(C(F)(F)F)cc2)=CC1c1ccco1 (centres unmarked) [Compound 47] | 36 µM (≈ 12 µg/mL)
N#CC1=C(N)OC(c2ccc(C(F)(F)F)cc2)=CC1c1ccc(Cl)cc1 (centres unmarked) [Compound 48] | 38 µM (≈ 14.3 µg/mL)
N#CC1=C(N)OC(c2ccc(C(F)(F)F)cc2)=CC1c1ccc([N+](=O)[O-])cc1 (centres unmarked) [Compound 49] | 151 µM (≈ 58.5 µg/mL)
N#CC1=C(N)OC(c2ccc(C(F)(F)F)cc2)=CC1c1ccc[nH]1 (centres unmarked) [Compound 50] | 16 to 18 µM (≈ 5.3 to 5.96 µg/mL)
N#CC1=C(N)OC(c2ccc(OC(F)(F)F)cc2)=CC1c1cccc(Cl)c1Cl (centres unmarked) [Compound 51] | 16 to 18 µM (≈ 6.84 to 7.69 µg/mL)
N#CC1=C(N)OC(c2ccc(OC(F)(F)F)cc2)=CC1c1cccc(Cl)c1 (centres unmarked) [Compound 52] | 127 µM (≈ 49.9 µg/mL)
N#CC1=C(N)OC(c2ccc(OC(F)(F)F)cc2)=CC1c1c[nH]c2ccccc12 (centres unmarked) [Compound 53] | 29 µM (≈ 11.5 µg/mL)
N#CC1=C(N)OC(c2ccc(OC(F)(F)F)cc2)=CC1c1ccccc1[N+](=O)[O-] (centres unmarked) [Compound 54] | 31 µM (≈ 12.5 µg/mL)
N#CC1=C(N)OC(c2ccc(OC(F)(F)F)cc2)=CC1c1cccc([N+](=O)[O-])c1 (centres unmarked) [Compound 55] | 124 µM (≈ 50 µg/mL)
N#CC1=C(N)OC(c2ccc(OC(F)(F)F)cc2)=CC1c1cccs1 (centres unmarked) [Compound 56] | 31 µM (≈ 11.3 µg/mL)
N#CC1=C(N)OC(c2ccc(OC(F)(F)F)cc2)=CC1c1ccco1 (centres unmarked) [Compound 57] | 34 µM (≈ 11.8 µg/mL)
N#CC1=C(N)OC(c2ccc(OC(F)(F)F)cc2)=CC1c1ccc(Cl)cc1 (centres unmarked) [Compound 58] | 36 µM (≈ 14.1 µg/mL)
N#CC1=C(N)OC(c2ccc(OC(F)(F)F)cc2)=CC1c1ccc([N+](=O)[O-])cc1 (centres unmarked) [Compound 59] | 144 µM (≈ 58.1 µg/mL)
N#CC1=C(N)OC(c2ccc(OC(F)(F)F)cc2)=CC1c1ccc[nH]1 (centres unmarked) [Compound 60] | 16 to 18 µM (≈ 5.56 to 6.25 µg/mL)
NC(=O)c1cnccn1 [Pyrazinamide, reference compound] | ~25 µM (≈ 3.08 µg/mL)
[H]/N=C(/N)N[C@H]1[C@H](O)[C@@H](O)[C@H](O[C@@H]2O[C@@H](C)[C@](O)(C=O)[C@H]2O[C@@H]2O[C@@H](CO)[C@H](O)[C@@H](O)[C@@H]2NC)[C@@H](N/C(N)=N\[H])[C@@H]1O [Streptomycin, reference compound] | ~11 µM (≈ 6.4 µg/mL)

same assay, conditions: Mycobacterium tuberculosis, H37RV, 120 h, read-out: H37RV MIC

SMILES | MIC
O=C(/C=C/c1ccco1)c1ccc(C(F)(F)F)cc1 [Compound 7] | 177 µM (≈ 47.1 µg/mL)

same assay, conditions: ratio of MIC, H37RV

SMILES | Potency relative to pyrazinamide
N#Cc1c(-c2c[nH]c3ccccc23)cc(-c2ccc(OC(F)(F)F)cc2)nc1N [Compound 40] | 3 fold

system: not listed separately; assay: MTT cytotoxicity assay; assay type: cell-based; settings: LO2 normal liver cells, human normal liver cells (L02), mean of three experiments

SMILES | IC50
N#Cc1c(-c2c[nH]c3ccccc23)cc(-c2ccc(OC(F)(F)F)cc2)nc1N [Compound 40] | > 70 µg/mL
